We go through 25 compounds from PubChem BioAssay AID248 (DTP/NCI, 2004).

“And” between values parts separate entries of the source, which are not always exact repeats. Identical values can stand only once. Toxic doses and inconclusive results are not listed.

The test system of this test is L1210 leukemia ip in BDF1 mice, survival T/C. The experiment in a line: NCI In Vivo Anticancer Drug Screen. Data for tumor model L1210 Leukemia (intraperitoneal) in B6D2F1 (BDF1) mice. Particulars: higher = longer survival. Summed up:
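Ratio derived from survival: compound-dosed mice over vehicle-dosed mice, all bearing a transplantable tumor.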

The mark [1] stands for this setting: endpoint: mean survival time, dose: 100.0 mg/kg/injection, schedule: Q01DX009 (ip), vehicle: Klucel (hydroxypropylcellulose) (HPC).
[2] abbreviates: endpoint: mean survival time, dose: 200.0 mg/kg/injection, schedule: Q01DX009 (ip), vehicle: Klucel (hydroxypropylcellulose) (HPC).
Where [3] appears, read: endpoint: mean survival time, dose: 400.0 mg/kg/injection, schedule: Q01DX009 (ip), vehicle: Klucel (hydroxypropylcellulose) (HPC).
The mark [4] stands for this setting: endpoint: mean survival time, dose: 100.0 mg/kg/injection, schedule: Q04DX003 (ip), vehicle: Klucel (hydroxypropylcellulose) (HPC).
The mark [5] stands for this setting: endpoint: mean survival time, dose: 200.0 mg/kg/injection, schedule: Q04DX003 (ip), vehicle: Klucel (hydroxypropylcellulose) (HPC).
Setting [6] is: endpoint: mean survival time, dose: 400.0 mg/kg/injection, schedule: Q04DX003 (ip), vehicle: Klucel (hydroxypropylcellulose) (HPC).
The mark [7] stands for this setting: endpoint: mean survival time, dose: 100.0 mg/kg/injection, schedule: Q04DX002 (ip), vehicle: saline with Tween-80.
The mark [8] stands for this setting: endpoint: mean survival time, dose: 200.0 mg/kg/injection, schedule: Q04DX002 (ip), vehicle: saline with Tween-80.
Where [9] appears, read: endpoint: mean survival time, dose: 400.0 mg/kg/injection, schedule: Q04DX002 (ip), vehicle: saline with Tween-80.
Where [10] appears, read: endpoint: mean survival time, dose: 100.0 mg/kg/injection, schedule: Q01DX001 (ip), vehicle: saline.
Where [11] appears, read: endpoint: mean survival time, dose: 200.0 mg/kg/injection, schedule: Q01DX001 (ip), vehicle: saline.
[12] abbreviates: endpoint: mean survival time, dose: 400.0 mg/kg/injection, schedule: Q01DX001 (ip), vehicle: saline.
Setting [13] is: endpoint: mean survival time, dose: 100.0 mg/kg/injection, schedule: Q01DX009 (ip), vehicle: saline with Tween-80.
Setting [14] is: endpoint: mean survival time, dose: 200.0 mg/kg/injection, schedule: Q01DX009 (ip), vehicle: saline with Tween-80.

Consider `O=[N+]([O-])c1ccc(NCSc2ccc(Cl)cc2)cc1`, for which the T/C is, setting by setting: (endpoint: mean survival time, dose: 100.0 mg/kg/injection, schedule: Q04DX003 (ip), vehicle: other) 101 % of control; (endpoint: mean survival time, dose: 200.0 mg/kg/injection, schedule: Q04DX003 (ip), vehicle: other) 106 % of control; (endpoint: mean survival time, dose: 400.0 mg/kg/injection, schedule: Q04DX003 (ip), vehicle: other) 108 % of control.
Consider `CC(C)C(N)C(=O)NO` (centres undefined), for which the T/C by setting is: (endpoint: mean survival time, dose: 50.0 mg/kg/injection, schedule: Q01DX009 (ip), vehicle: saline) 95 % of control; (endpoint: mean survival time, dose: 100.0 mg/kg/injection, schedule: Q01DX009 (ip), vehicle: saline) 100 % of control; (endpoint: mean survival time, dose: 200.0 mg/kg/injection, schedule: Q01DX009 (ip), vehicle: saline) 107 % of control; (endpoint: mean survival time, dose: 400.0 mg/kg/injection, schedule: Q01DX009 (ip), vehicle: saline) 110 % of control.
As for `CCOC(=O)c1cc(Cl)nc2ccc3ccccc3c12`, the T/C runs as follows: under setting [1], 101 % of control; under setting [2], 97 % of control; under setting [3], 96 % of control.
As for `CCCCCCCCCCCCSCCNC(=O)CCl`, the T/C was 87 % of control under setting [1]; 95 % of control under setting [4]; 92 % of control under setting [2]; 92 % of control under setting [5]; 88 % of control under setting [3]; 92 % of control under setting [6].
For `COc1cc2c(ccc3c4cc(OC)c(OC)cc4c[n+](C)c23)cc1O`, the T/C reads like this: (endpoint: mean survival time, dose: 80.0 mg/kg/injection, schedule: Q01DX009 (ip), vehicle: saline) 159 % of control; under setting [4], 120 % of control; (endpoint: mean survival time, dose: 320.0 mg/kg/injection, schedule: Q01DX009 (ip), vehicle: saline) 161 % of control; under setting [6], 120 % of control.
In the case of `CCCCCCCC/C=N/Nc1nnc(N/N=C/CCCCCCCC)c2ccccc12`, the T/C (endpoint: mean survival time, dose: 50.0 mg/kg/injection, schedule: Q01DX001 (ip), vehicle: carboxymethylcellulose (CMC)) is 108 % of control; the T/C (endpoint: mean survival time, dose: 100.0 mg/kg/injection, schedule: Q01DX001 (ip), vehicle: carboxymethylcellulose (CMC)) is 114 % of control; the T/C (endpoint: mean survival time, dose: 177.0 mg/kg/injection, schedule: Q01DX001 (ip), vehicle: carboxymethylcellulose (CMC)) is 93 % of control and 111 % of control; the T/C (endpoint: mean survival time, dose: 200.0 mg/kg/injection, schedule: Q01DX001 (ip), vehicle: carboxymethylcellulose (CMC)) was 114 % of control; the T/C (endpoint: mean survival time, dose: 266.0 mg/kg/injection, schedule: Q01DX001 (ip), vehicle: carboxymethylcellulose (CMC)) was 119 % of control; the T/C (endpoint: mean survival time, dose: 400.0 mg/kg/injection, schedule: Q01DX001 (ip), vehicle: carboxymethylcellulose (CMC)) is 102 % of control. Under “endpoint: mean survival time, dose: 600.0 mg/kg/injection, schedule: Q01DX001 (ip), vehicle: carboxymethylcellulose (CMC)”, the T/C is 101 % of control.
With `CCCCCCCCCCCCCCCC(=O)Nc1c(C)cccc1Cl`, the T/C under setting [7] is 96 % of control, the T/C under setting [8] was 88 % of control and the T/C under setting [9] is 93 % of control.
`CC1(c2cccc3ccccc23)NC(=O)c2ccccc2N1` (centres undefined): the T/C is, setting by setting: (endpoint: mean survival time, dose: 50.0 mg/kg/injection, schedule: Q01DX009 (ip), vehicle: Klucel (hydroxypropylcellulose) (HPC)) 98 % of control; under setting [1], 103 % of control; (endpoint: mean survival time, dose: 150.0 mg/kg/injection, schedule: Q01DX009 (ip), vehicle: Klucel (hydroxypropylcellulose) (HPC)) 101 % of control.
As for `COc1nc(N)nc2c1nnn2C1OC(CO)C(O)C1O` (centres undefined), the T/C was 108 % of control (endpoint: mean survival time, dose: 44.0 mg/kg/injection, schedule: Q01DX001 (ip), vehicle: Klucel (hydroxypropylcellulose) (HPC)); 103 % of control (endpoint: mean survival time, dose: 66.0 mg/kg/injection, schedule: Q01DX001 (ip), vehicle: Klucel (hydroxypropylcellulose) (HPC)); 122 % of control (endpoint: mean survival time, dose: 150.0 mg/kg/injection, schedule: Q01DX001 (ip), vehicle: Klucel (hydroxypropylcellulose) (HPC)).
For the compound `COCCc1nnn(C)n1`, the T/C was 97 % of control (endpoint: mean survival time, dose: 100.0 mg/kg/injection, schedule: Q04DX002 (ip), vehicle: saline); 97 % of control (endpoint: mean survival time, dose: 200.0 mg/kg/injection, schedule: Q04DX002 (ip), vehicle: saline); 108 % of control (endpoint: mean survival time, dose: 400.0 mg/kg/injection, schedule: Q04DX002 (ip), vehicle: saline).
Take `CCOC(=O)C1CCC(=O)N1C(=O)c1cc([N+](=O)[O-])cc([N+](=O)[O-])c1` (centres undefined): the T/C under setting [4] is 97 % of control, the T/C under setting [5] was 92 % of control and the T/C under setting [6] was 94 % of control.
Consider `Cc1cc(Cl)c2c(Cl)ccc(Cl)c2n1`, for which the T/C is, setting by setting: under setting [10], 98 % of control; under setting [11], 96 % of control; under setting [12], 98 % of control.
For `CN(C)c1ccc(C=Nc2ccc3c(c2)Cc2ccccc2-3)cc1`, the T/C under setting [1] is 97 % of control; the T/C under setting [4] is 94 % of control; the T/C under setting [2] is 95 % of control; the T/C under setting [5] is 107 % of control; the T/C under setting [3] is 90 % of control; the T/C under setting [6] was 97 % of control.
For the compound `O=C(O)c1ccc(Br)cc1`, the T/C by setting is: (endpoint: mean survival time, dose: 100.0 mg/kg/injection, schedule: Q04DX003 (ip), vehicle: saline) 89 % of control; (endpoint: mean survival time, dose: 200.0 mg/kg/injection, schedule: Q04DX003 (ip), vehicle: saline) 86 % of control.
Consider `NNC(=O)NN`, for which the T/C by setting is: under setting [13], 87 % of control; under setting [14], 90 % of control; (endpoint: mean survival time, dose: 400.0 mg/kg/injection, schedule: Q01DX009 (ip), vehicle: saline with Tween-80) 87 % of control.
As to `CNC(=O)Oc1c(C)cccc1C`, the T/C is 103 % of control under setting [7], 106 % of control under setting [8] and 95 % of control under setting [9].
With `CC1(CCc2ccc(N)cc2)NC(=O)NC1=O` (centres undefined), the T/C was 110 % of control under setting [4], 96 % of control under setting [5] and 93 % of control under setting [6].
Regarding `CC1CC([P+](c2ccccc2)(c2ccccc2)c2ccccc2)=NN1` (centres undefined), the T/C is 120 % of control (endpoint: mean survival time, dose: 25.0 mg/kg/injection, schedule: Q04DX003 (ip), vehicle: saline) and 113 % of control (endpoint: mean survival time, dose: 50.0 mg/kg/injection, schedule: Q04DX003 (ip), vehicle: saline).
For the compound `c1ccc(C2=C(c3ccccc3)C(c3ccccc3)=C(c3ccccc3)CC2)cc1`, the T/C (endpoint: mean survival time, dose: 100.0 mg/kg/injection, schedule: Q01DX001 (ip), vehicle: saline with Tween-80) was 89 % of control; the T/C (endpoint: mean survival time, dose: 200.0 mg/kg/injection, schedule: Q01DX001 (ip), vehicle: saline with Tween-80) is 89 % of control; the T/C (endpoint: mean survival time, dose: 400.0 mg/kg/injection, schedule: Q01DX001 (ip), vehicle: saline with Tween-80) is 86 % of control.
With `ClC1(Cl)C2CCCOC21` (centres undefined), the T/C runs as follows: under setting [1], 97 % of control; under setting [2], 100 % of control; under setting [3], 98 % of control.
Consider `O=C(ON=C(c1ccc(Cl)cc1)c1ccc(Cl)cc1)c1ccc(Cl)cc1`, for which the T/C is 157 % of control (endpoint: median survival time, dose: 300.0 mg/kg/injection, schedule: Q01DX009 (ip), vehicle: Klucel (hydroxypropylcellulose) (HPC)); 88 % of control (endpoint: median survival time, dose: 500.0 mg/kg/injection, schedule: Q01DX009 (ip), vehicle: Klucel (hydroxypropylcellulose) (HPC)); 74 % of control (endpoint: median survival time, dose: 833.0 mg/kg/injection, schedule: Q01DX009 (ip), vehicle: Klucel (hydroxypropylcellulose) (HPC)).
On to `Cc1ccc(S(=O)(=O)OCC(F)(F)C(F)(F)C(F)(F)COS(=O)(=O)c2ccc(C)cc2)cc1`, for which the T/C is, setting by setting: (endpoint: mean survival time, dose: 75.0 mg/kg/injection, schedule: Q04DX002 (ip), vehicle: saline with Tween-80) 88 % of control; (endpoint: mean survival time, dose: 150.0 mg/kg/injection, schedule: Q04DX002 (ip), vehicle: saline with Tween-80) 91 % of control; (endpoint: mean survival time, dose: 300.0 mg/kg/injection, schedule: Q04DX002 (ip), vehicle: saline with Tween-80) 95 % of control.
Turning to `CC(C)CSC(C(O)C(O)C(O)CO)n1ccc(N)nc1=O` (centres undefined), the T/C is, setting by setting: (endpoint: mean survival time, dose: 100.0 mg/kg/injection, schedule: Q01DX005 (ip), vehicle: saline) 90 % of control; (endpoint: mean survival time, dose: 200.0 mg/kg/injection, schedule: Q01DX005 (ip), vehicle: saline) 98 % of control.
With `Cc1ncc(C(C)(O)c2ccccc2)n1C` (centres undefined), the T/C was 105 % of control under setting [13] and 94 % of control under setting [14].
In the case of `CN(C(=O)Cc1ccccc1)c1ccccc1[N+](=O)[O-]`, the T/C is 98 % of control (endpoint: mean survival time, dose: 50.0 mg/kg/injection, schedule: Q01DX001 (ip), vehicle: saline); 104 % of control under setting [10]; 95 % of control under setting [11]; 101 % of control under setting [12].
